The experiment relates to CD2F1 mice, L1210 leukemia ip, survival T/C. As to the kind of experiment: NCI In Vivo Anticancer Drug Screen. Data for tumor model L1210 Leukemia (intraperitoneal) in CD2F1 (CDF1) mice. Conditions: endpoint: mean survival time, higher = longer survival. The procedure, abridged:
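Antitumor effect is scored in animals hosting a serially transplanted tumor. Values compare compound-dosed animals against vehicle-only controls as a simple quotient.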

Where [1] appears, read: dose: 100.0 mg/kg/injection, schedule: Q04DX002 (ip), vehicle: saline.
The mark [2] stands for this setting: dose: 200.0 mg/kg/injection, schedule: Q04DX002 (ip), vehicle: saline.
Setting [3] is: dose: 400.0 mg/kg/injection, schedule: Q04DX002 (ip), vehicle: saline.
Setting [4] is: dose: 50.0 mg/kg/injection, schedule: Q01DX001 (ip), vehicle: saline with Tween-80.
Setting [5] is: dose: 100.0 mg/kg/injection, schedule: Q04DX003 (ip), vehicle: saline with Tween-80.
[6] abbreviates: dose: 100.0 mg/kg/injection, schedule: Q01DX009 (ip), vehicle: saline with Tween-80.
Setting [7] is: dose: 200.0 mg/kg/injection, schedule: Q01DX009 (ip), vehicle: saline with Tween-80.
The mark [8] stands for this setting: dose: 200.0 mg/kg/injection, schedule: Q04DX003 (ip), vehicle: saline with Tween-80.
Setting [9] is: dose: 400.0 mg/kg/injection, schedule: Q01DX009 (ip), vehicle: saline with Tween-80.
[10] abbreviates: dose: 400.0 mg/kg/injection, schedule: Q04DX003 (ip), vehicle: saline with Tween-80.

Where “and” joins values, the source holds several entries; their conditions need not be identical. Identical values can stand only once. Inconclusive results and toxic doses are left out.

Take `OCC(O)C(O)C(O)C(O)C(O)CO` (stereo not given): the T/C by setting is: (dose: 50.0 mg/kg/injection, schedule: Q01DX009 (ip), vehicle: Klucel (hydroxypropylcellulose) (HPC)) 98 % of control; (dose: 100.0 mg/kg/injection, schedule: Q01DX009 (ip), vehicle: Klucel (hydroxypropylcellulose) (HPC)) 102 % of control; (dose: 100.0 mg/kg/injection, schedule: Q01DX009 (ip), vehicle: saline) 98 % of control; under setting [1], 100 % of control; (dose: 200.0 mg/kg/injection, schedule: Q01DX009 (ip), vehicle: Klucel (hydroxypropylcellulose) (HPC)) 98 % of control; (dose: 200.0 mg/kg/injection, schedule: Q01DX009 (ip), vehicle: saline) 91 % of control. The T/C is 107 % of control under setting [2]; 102 % of control (dose: 400.0 mg/kg/injection, schedule: Q01DX009 (ip), vehicle: saline); 96 % of control under setting [3].

Consider `O=NN(CCCl)C(=O)NC1CCCN(Cc2ccccc2)C1` (stereo not given), for which the T/C by setting is: (dose: 6.25 mg/kg/injection, schedule: Q01DX001 (ip), vehicle: saline with Tween-80) 106 % of control; (dose: 12.5 mg/kg/injection, schedule: Q01DX001 (ip), vehicle: saline with Tween-80) 115 % of control; under setting [4], 168 % of control; (dose: 100.0 mg/kg/injection, schedule: Q01DX001 (ip), vehicle: saline with Tween-80) 340 % of control.

For `C[n+]1ccc(Nc2ccc(NC(=O)c3ccc(Nc4cc[n+](C)c5ccc([N+](=O)[O-])cc45)cc3[N+](=O)[O-])cc2)cc1`, the T/C is, setting by setting: (dose: 79.0 mg/kg/injection, schedule: Q04DX003 (ip), vehicle: saline with Tween-80) 122 % of control; under setting [5], 113 % of control; (dose: 178.0 mg/kg/injection, schedule: Q04DX003 (ip), vehicle: saline with Tween-80) 152 % of control; (dose: 266.0 mg/kg/injection, schedule: Q04DX003 (ip), vehicle: saline with Tween-80) 177 % of control and 187 % of control.

Turning to `Cc1c(Cl)c(Cl)c(Cl)c(-c2c(Cl)c(C)c(Cl)c(Cl)c2Cl)c1Cl`, the T/C reads like this: (dose: 100.0 mg/kg/injection, schedule: Q04DX003 (ip), vehicle: saline) 102 % of control; (dose: 200.0 mg/kg/injection, schedule: Q04DX003 (ip), vehicle: saline) 96 % of control; (dose: 400.0 mg/kg/injection, schedule: Q04DX003 (ip), vehicle: saline) 98 % of control.

With `c1cnc(NCCSSCCNc2ncccn2)nc1`, the T/C is, setting by setting: under setting [6], 91 % of control; under setting [5], 97 % of control; under setting [7], 89 % of control; under setting [8], 97 % of control; under setting [9], 91 % of control; under setting [10], 96 % of control.

For `CCN(CC)Cc1ccccc1COC(=O)c1ccccc1`, the T/C is 98 % of control under setting [1] and 111 % of control under setting [2].

As for `CC(C)(C)C(Br)C(=O)O` (stereo not given), the T/C is 97 % of control (dose: 75.0 mg/kg/injection, schedule: Q01DX001 (ip), vehicle: saline with Tween-80) and 97 % of control (dose: 150.0 mg/kg/injection, schedule: Q01DX001 (ip), vehicle: saline with Tween-80).

For the compound `CN(C1=CC(=O)C(N(C)C2CCCCC2)=CC1=O)C1CCCCC1`, the T/C was 94 % of control (dose: 3.75 mg/kg/injection, schedule: Q01DX009 (ip), vehicle: saline); 103 % of control (dose: 3.75 mg/kg/injection, schedule: Q04DX003 (ip), vehicle: saline); 90 % of control (dose: 7.5 mg/kg/injection, schedule: Q01DX009 (ip), vehicle: saline); 101 % of control (dose: 7.5 mg/kg/injection, schedule: Q04DX003 (ip), vehicle: saline); 89 % of control (dose: 15.0 mg/kg/injection, schedule: Q01DX009 (ip), vehicle: saline); 98 % of control (dose: 15.0 mg/kg/injection, schedule: Q04DX003 (ip), vehicle: saline).

For the compound `CCCC(=O)OCc1ccc(Cl)cc1Cl`, the T/C runs as follows: under setting [6], 96 % of control; under setting [5], 91 % of control; under setting [7], 98 % of control; under setting [8], 89 % of control; under setting [9], 98 % of control; under setting [10], 96 % of control.

Regarding `CC1COS(=O)O1` (stereo not given), the T/C was 96 % of control (dose: 10.0 mg/kg/injection, schedule: Q01DX009 (ip), vehicle: saline with Tween-80); 103 % of control (dose: 10.0 mg/kg/injection, schedule: Q04DX003 (ip), vehicle: saline); 101 % of control (dose: 20.0 mg/kg/injection, schedule: Q01DX009 (ip), vehicle: saline with Tween-80); 97 % of control (dose: 20.0 mg/kg/injection, schedule: Q04DX003 (ip), vehicle: saline); 109 % of control (dose: 40.0 mg/kg/injection, schedule: Q01DX009 (ip), vehicle: saline with Tween-80); 101 % of control (dose: 40.0 mg/kg/injection, schedule: Q04DX003 (ip), vehicle: saline).

Turning to `NCc1cccnc1`, the T/C is, setting by setting: under setting [1], 96 % of control; under setting [2], 107 % of control; under setting [3], 111 % of control.

As to `CCc1c(Br)c(CC)c(CC)c(CC)c1CC`, the T/C under setting [5] was 98 % of control, the T/C under setting [8] was 98 % of control and the T/C under setting [10] was 97 % of control.

In the case of `CC(C)(C)N1CC(C(O)(c2ccccc2)c2ccccc2)C1`, the T/C runs as follows: (dose: 25.0 mg/kg/injection, schedule: Q01DX001 (ip), vehicle: saline with Tween-80) 101 % of control; under setting [4], 101 % of control.

On to `O=c1c2cccc3c2-c2c4c(cccc14)c(O)c1cccc(c3=O)c21`, for which the T/C is 94 % of control (dose: 100.0 mg/kg/injection, schedule: Q04DX003 (ip), vehicle: saline sonified); 95 % of control (dose: 200.0 mg/kg/injection, schedule: Q04DX003 (ip), vehicle: saline sonified); 92 % of control (dose: 400.0 mg/kg/injection, schedule: Q04DX003 (ip), vehicle: saline sonified).

Take `Nc1c(-c2ncc[nH]2)ncn1C1OC(CO)C(O)C1O` (stereo not given): the T/C was 109 % of control (dose: 100.0 mg/kg/injection, schedule: Q04DX002 (ip), vehicle: saline with Tween-80); 97 % of control (dose: 200.0 mg/kg/injection, schedule: Q04DX002 (ip), vehicle: saline with Tween-80); 102 % of control (dose: 400.0 mg/kg/injection, schedule: Q04DX002 (ip), vehicle: saline with Tween-80).

Take `N#CCc1ccc(Cl)c(Cl)c1`: the T/C (dose: 25.0 mg/kg/injection, schedule: Q01DX009 (ip), vehicle: saline with Tween-80) was 102 % of control; the T/C (dose: 25.0 mg/kg/injection, schedule: Q04DX003 (ip), vehicle: saline with Tween-80) was 111 % of control; the T/C (dose: 50.0 mg/kg/injection, schedule: Q01DX009 (ip), vehicle: saline with Tween-80) is 100 % of control; the T/C (dose: 50.0 mg/kg/injection, schedule: Q04DX003 (ip), vehicle: saline with Tween-80) is 94 % of control; the T/C under setting [5] was 102 % of control.

Consider `NC(CSSc1ccccc1)=NC1CCCCC1`, for which the T/C by setting is: (dose: 12.5 mg/kg/injection, schedule: Q01DX001 (ip), vehicle: Klucel (hydroxypropylcellulose) (HPC)) 97 % of control; (dose: 25.0 mg/kg/injection, schedule: Q01DX001 (ip), vehicle: Klucel (hydroxypropylcellulose) (HPC)) 92 % of control; (dose: 50.0 mg/kg/injection, schedule: Q01DX001 (ip), vehicle: Klucel (hydroxypropylcellulose) (HPC)) 97 % of control.

Source of the values: PubChem BioAssay AID256 (DTP/NCI, 2004).
